Reference: patent US20250144067A1, “PERSONALIZED STARVATION THERAPY FOR CANCER” (Faeth Therapeutics, Inc., priority 2021, published 2025)
Like-named read-outs stand apart in the source and are kept apart here.

Assays:
[1] = test system: NCI-H292 lung cancer cells; test: FDA drug screening, complete media vs cholesterol-free media with simvastatin (TABLE 2); assay type: cell-based, human
[2] = test system: NCI-H292 lung cancer cells; test: FDA drug screening, complete media vs cholesterol-free media without statin (TABLE 1); assay type: cell-based, human
[3] = NCI-H292 cells, FDA drug library screen, cholesterol-free media with simvastatin 0.04 μM
[4] = NCI-H292 cells, FDA drug library screen, complete media
[5] = complete media vs cholesterol-free media + simvastatin (0.04 μM), >0 enhanced anti-cancer activity, about 0 neutral, <0 antagonist
[6] = NCI-H292 cells, cholesterol-free media without statin, FDA drug library screen
[7] = NCI-H292 cells, complete media, FDA drug library screen
[8] = NCI-H292 cells, drug in cholesterol-free media with simvastatin 0.04 μM
[9] = NCI-H292 cells, drug in complete media
[10] = NCI-H292 cells, cholesterol-free media without statin
[11] = complete media minus cholesterol-free media + simvastatin, […]
[12] = Complete minus Cholesterol-free, […]
[13] = NCI-H292 cells, FDA drug library screen, cholesterol-free media without statin
[14] = Complete minus Cholesterol-free, >0 enhanced anti-cancer activity, about 0 neutral, <0 antagonist
[15] = Complete minus Cholesterol-free, greater than 0 enhanced anti-cancer activity, about 0 neutral, below 0 antagonist
[16] = complete vs cholesterol-free media, […]
[17] = complete media vs cholesterol-free media + simvastatin (0.04 μM), […]
[18] = NCI-H292 cells in cholesterol-free media without statin
[19] = NCI-H292 cells in complete media
[20] = NCI-H292 cells, cholesterol-free media with simvastatin 0.04 μM, […]

Mosapride (citrate)
Cholesterol-free media + simvastatin (0.04 μM) [1, 3]: 0.963
Complete Media [1, 4]: 0.8629
Difference [1, 5]: −0.10
Cholesterol-free [2, 6]: 0.9953
Complete [2, 7]: 1.241
Difference ([2]; complete vs cholesterol-free media, >0 enhanced anti-cancer activity, about 0 neutral, <0 antagonist): 0.25

Nafamostat (mesylate)
Cholesterol-free media + simvastatin (0.04 μM) [1, 8]: 1.2
Complete Media [1, 9]: 0.9501
Difference [1, 5]: −0.25
Cholesterol-free [2, 10]: 1.215
Complete ([2]; NCI-H292 cells, complete media): 0.8839
Difference ([2]; complete vs cholesterol-free media, greater than 0 enhanced anti-cancer activity, about 0 neutral, below 0 antagonists): −0.33

Naloxegol (oxalate)
Cholesterol-free media + simvastatin (0.04 μM) [1, 3]: 0.8544
Difference [1, 11]: 0.21
Difference [2, 12]: −0.15
Cholesterol-free [2, 13]: 1.025

Nelfinavir (Mesylate)
Cholesterol-free media + simvastatin (0.04 μM) ([1]; NCI-H292 cells, FDA library drug in cholesterol-free media with simvastatin 0.04 μM): 1.565
Complete Media ([1]; NCI-H292 cells, FDA library drug in complete media): 1.199
Difference [1, 5]: −0.37
Difference [2, 14]: −0.02
Cholesterol-free [2, 6]: 1.193
Complete [2, 7]: 1.169

Niraparib (tosylate)
Cholesterol-free media + simvastatin (0.04 μM) [1]: 1.448
Complete Media [1]: 1.091
Difference [1]: −0.36
Cholesterol-free [2]: 1.671
Difference [2]: −0.63

Oclacitinib (maleate)
Cholesterol-free media + simvastatin (0.04 μM) [1, 3]: 0.9891
Complete Media [1, 4]: 0.8445
Difference [1, 5]: −0.14
Difference [2, 15]: −0.16
Cholesterol-free [2, 13]: 0.7098
Complete [2, 4]: 0.5476

Octreotide (acetate)
Complete Media [1, 4]: 1.58
Difference [1, 11]: 0.17
Cholesterol-free [2, 10]: 1.157
Complete ([2]; NCI-H292 cells, complete media): 0.7258
Difference [2, 16]: −0.43

Oritavancin (diphosphate)
Cholesterol-free media + simvastatin (0.04 μM) [1, 8]: 1.021
Complete Media [1, 9]: 0.8102
Difference [1, 17]: −0.21
Difference [2, 12]: −0.64
Cholesterol-free [2, 18]: 1.626
Complete [2, 19]: 0.9877

Orphenadrine (citrate)
Complete Media [1, 4]: 1.525
Difference ([1]; complete media minus cholesterol-free media + simvastatin, >0 enhanced anti-cancer activity, about 0 neutral, <0 antagonist): 0.38
Difference [2, 15]: −0.10
Cholesterol-free [2, 13]: 0.8697
Complete [2, 4]: 0.768

Oseltamivir (phosphate)
Cholesterol-free media + simvastatin (0.04 μM) [1, 20]: 0.8277
Complete Media ([1]; NCI-H292 cells, complete media, […]): 0.8627
Difference [1, 11]: 0.04
Difference [2, 12]: −0.16
Cholesterol-free [2, 13]: 1.28
Complete [2, 4]: 1.117

Osimertinib (dimesylate)
Cholesterol-free media + simvastatin (0.04 μM) [1, 3]: 0.4427
Complete Media [1, 4]: 0.3618
Difference [1, 17]: −0.08
Difference [2, 12]: −0.05
Cholesterol-free [2, 6]: 0.1916
Complete [2, 7]: 0.1371

Osimertinib mesylate
Cholesterol-free media + simvastatin (0.04 μM) [1, 3]: 0.3874
Complete Media [1, 4]: 0.2672
Difference [1, 17]: −0.12
Difference [2, 12]: −0.14
Cholesterol-free [2, 13]: 0.3436
Complete [2, 4]: 0.1992

Oxaliplatin
Cholesterol-free media + simvastatin (0.04 μM) [1, 3]: 0.8725
Difference [1, 11]: 0.17
Cholesterol-free [2, 10]: 1.359
Complete ([2]; NCI-H292 cells, complete media): 0.9211
Difference [2, 16]: −0.44

Oxeladin (citrate)
Cholesterol-free media + simvastatin (0.04 μM) [1, 3]: 0.7029
Complete Media [1, 4]: 1.466
Difference [1, 11]: 0.76
Difference [2, 12]: −0.55
Cholesterol-free [2, 18]: 1.475
Complete [2, 19]: 0.921

Oxolamine (citrate)
Cholesterol-free media + simvastatin (0.04 μM) [1]: 0.8466
Complete Media [1]: 1.01
Difference [1]: 0.16
Cholesterol-free [2]: 1.162
Complete [2]: 0.9128
Difference [2]: −0.25

Oxytocin (acetate)
Cholesterol-free media + simvastatin (0.04 μM) [1, 20]: 0.9906
Difference [1, 11]: 0.04
Difference [2, 12]: −0.16
Cholesterol-free [2, 13]: 1.734
Complete [2, 4]: 1.57

Paromomycin (sulfate)
Cholesterol-free media + simvastatin (0.04 μM) [1, 8]: 1.383
Complete Media [1, 9]: 1.216
Difference [1, 17]: −0.17
Cholesterol-free [2, 6]: 0.541
Complete [2, 7]: 1.15
Difference [2, 16]: 0.61

Pasiniazid
Cholesterol-free media + simvastatin (0.04 μM) [1, 3]: 1.047
Complete Media [1, 4]: 1.325
Difference [1, 11]: 0.28
Cholesterol-free [2, 6]: 1.164
Complete [2, 7]: 1.274
Difference [2, 16]: 0.11

Pazufloxacin (mesylate)
Cholesterol-free media + simvastatin (0.04 μM) ([1]; NCI-H292 cells, cholesterol-free media with simvastatin 0.04 μM, FDA drug library screen (TABLE 2)): 0.9357
Complete Media ([1]; NCI-H292 cells, complete media, FDA drug library screen (TABLE 2)): 0.9248
Difference ([1]; complete media minus cholesterol-free media + simvastatin (0.04 μM), >0 enhanced anti-cancer activity, about 0 neutral, <0 antagonist): −0.01
Difference [2, 14]: −0.28
Cholesterol-free [2, 10]: 0.9858
Complete ([2]; NCI-H292 cells, complete media): 0.7051
